Test results as given in BindingDB's records for patent US8633204 (Pfizer, 2014).

Each molecule was assayed against Phosphatidylinositol 4,5-bisphosphate 3-kinase catalytic subunit alpha isoform (Mus musculus, UniProt P42337) (assay: Biochemical Assay). Settings: pH 7.4; 25 °C.
Protocol: Compounds of the present invention were evaluated for potency against PI3-Kα using an in vitro kinase assay. PI3-Kα activity is measured in vitro by determining the level of phosphorylation of the substrate PI(4,5)P2. The formation of product PI(3,4,5)P3 is monitored by binding to the Grip1 PH domain in a ligand displacement fluorescence polarization (FP) assay, in which the TAMRA-labeled PI(3,4,5)P3 complexed with Grip1 PH domain is displaced by PI(3,4,5)P3 formed in the PI3-Kα reaction resulting in a decrease in FP signal.

Sequence of Phosphatidylinositol 4,5-bisphosphate 3-kinase catalytic subunit alpha isoform (P42337 whole entry, the tested form may be a part, canonical isoform): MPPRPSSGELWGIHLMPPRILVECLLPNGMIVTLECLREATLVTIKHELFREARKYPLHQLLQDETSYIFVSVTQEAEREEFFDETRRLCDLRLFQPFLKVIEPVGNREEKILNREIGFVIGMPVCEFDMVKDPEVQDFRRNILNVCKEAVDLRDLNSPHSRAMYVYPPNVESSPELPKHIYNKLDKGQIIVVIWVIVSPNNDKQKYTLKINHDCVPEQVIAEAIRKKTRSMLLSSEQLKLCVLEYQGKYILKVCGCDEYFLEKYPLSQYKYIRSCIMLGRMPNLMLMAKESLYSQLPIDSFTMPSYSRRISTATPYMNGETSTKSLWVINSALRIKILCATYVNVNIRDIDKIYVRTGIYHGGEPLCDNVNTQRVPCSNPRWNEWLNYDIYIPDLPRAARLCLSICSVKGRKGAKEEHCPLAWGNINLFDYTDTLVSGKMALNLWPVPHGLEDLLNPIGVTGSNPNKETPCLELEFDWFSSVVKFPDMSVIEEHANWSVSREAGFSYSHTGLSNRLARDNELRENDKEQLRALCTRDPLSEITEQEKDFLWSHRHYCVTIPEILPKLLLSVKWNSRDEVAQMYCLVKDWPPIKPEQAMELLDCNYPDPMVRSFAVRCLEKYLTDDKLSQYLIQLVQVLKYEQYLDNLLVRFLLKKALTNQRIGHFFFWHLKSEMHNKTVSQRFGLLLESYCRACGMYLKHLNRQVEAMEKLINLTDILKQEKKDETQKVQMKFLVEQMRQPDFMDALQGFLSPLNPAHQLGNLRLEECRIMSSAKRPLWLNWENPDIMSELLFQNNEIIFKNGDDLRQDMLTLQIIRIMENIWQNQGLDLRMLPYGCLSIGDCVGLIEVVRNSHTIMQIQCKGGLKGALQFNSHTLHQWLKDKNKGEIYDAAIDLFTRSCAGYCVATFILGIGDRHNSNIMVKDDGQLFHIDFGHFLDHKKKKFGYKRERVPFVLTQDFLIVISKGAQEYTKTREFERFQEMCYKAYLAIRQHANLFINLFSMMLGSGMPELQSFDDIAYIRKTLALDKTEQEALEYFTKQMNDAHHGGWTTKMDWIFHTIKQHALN

SMILES	IC50
Cc1nc(N)nc2c1cc(-c1cccnc1N)c(=O)n2C1CCCC1 [US8633204, 125]	1430 nM
CCNc1nc(C)c2cc(-c3ccc(O)c(OC)c3)c(=O)n(C3CCCC3)c2n1 [US8633204, 136]	3.08 nM
CCNc1nc(C)c2cc(-c3cccc(O)c3)c(=O)n(C3CCCC3)c2n1 [US8633204, 144]	1.01 nM
Cc1nc(N)nc2c1cc(Br)c(=O)n2[C@H]1CC[C@H](O)CC1 [US8633204, 157]	44 nM
Cc1nc(N)nc2c1cc(Br)c(=O)n2CC(C)(C)O [US8633204, 167]	680 nM
Cc1nc(N)nc2c1cc(-c1cn[nH]c1)c(=O)n2C1CCC(=O)CC1 [US8633204, 176]	12 nM
Cc1nc(N)nc2c1cc(-c1cnn(C)c1)c(=O)n2C1CCCC1 [US8633204, 235]	32 nM
